Source: PubChem BioAssay (NCI)
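96-well plates; 48 h exposure; 5 concentrations. Endpoints by linear interpolation between flanking doses. Not reached: highest tested concentration assigned. At the TGI there is no net growth.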

Legend:
Experiment in all cases: growth of human tumour cells (NCI), 48 h
M14 melanoma = tested on: M14 melanoma
HCT-116 colon = tested on: HCT-116 colon
OVCAR-3 ovarian = tested on: OVCAR-3 ovarian
MDA-MB-231 breast = tested on: MDA-MB-231 breast
K-562 leukemia = tested on: K-562 leukemia
SK-MEL-28 melanoma = tested on: SK-MEL-28 melanoma
IGROV1 ovarian = tested on: IGROV1 ovarian
OVCAR-8 ovarian = tested on: OVCAR-8 ovarian
HL-60(TB) leukemia = tested on: HL-60(TB) leukemia
U251 CNS = tested on: U251 CNS
PC-3 prostate = tested on: PC-3 prostate
UACC-257 melanoma = tested on: UACC-257 melanoma
OVCAR-5 ovarian = tested on: OVCAR-5 ovarian
HCC-2998 colon = tested on: HCC-2998 colon

Structure (SMILES)	TGI (M14 melanoma)	TGI (HCT-116 colon)	TGI (OVCAR-3 ovarian)	TGI (MDA-MB-231 breast)	TGI (K-562 leukemia)	TGI (SK-MEL-28 melanoma)	TGI (IGROV1 ovarian)	TGI (OVCAR-8 ovarian)	TGI (HL-60(TB) leukemia)	TGI (U251 CNS)	TGI (PC-3 prostate)	TGI (UACC-257 melanoma)	TGI (OVCAR-5 ovarian)	TGI (HCC-2998 colon)
c1cc2c(c(NC3=NCCO3)c1)CCC2	> 100 µM	> 100 µM	> 100 µM	> 100 µM	> 100 µM	> 100 µM	> 100 µM	> 100 µM	> 100 µM	> 100 µM	> 100 µM	> 100 µM	> 100 µM	–
CC(C)(C)Nc1noc(=O)n1C(C)(C)C	> 100 µM	> 100 µM	> 100 µM	> 100 µM	> 100 µM	> 100 µM	> 100 µM	> 100 µM	> 100 µM	> 100 µM	> 100 µM	> 100 µM	> 100 µM	–
CCC[C@H](NS(=O)c1ccc(C)cc1)C(C(=O)OCC)=C(c1ccccc1)c1ccccc1 (some centres not stated)	51.2 µM	27.4 µM	–	> 100 µM	> 100 µM	58 µM	75.8 µM	97.4 µM	> 100 µM	33.5 µM	50.7 µM	33.5 µM	43.4 µM	15.3 µM
C=C(C)[C@@]1(OC(=O)c2cc([N+](=O)[O-])cc([N+](=O)[O-])c2)C[C@@H]2CCCC[C@@H]21	> 100 µM	> 100 µM	–	> 100 µM	> 100 µM	> 100 µM	> 100 µM	> 100 µM	> 100 µM	> 100 µM	> 100 µM	> 100 µM	> 100 µM	> 100 µM
Nc1cc(N2CCCC2)nc(=O)n1-c1ccccc1	> 100 µM	> 100 µM	–	> 100 µM	> 100 µM	> 100 µM	> 100 µM	> 100 µM	> 100 µM	> 100 µM	> 100 µM	> 100 µM	> 100 µM	75.6 µM
C[n+]1c(-c2ccc(/C=N/NC(=O)C(=O)N/N=C/c3ccc(-c4cn5ccsc5[n+]4C)cc3)cc2)cn2ccsc21	> 100 µM	> 100 µM	–	> 100 µM	> 100 µM	> 100 µM	> 100 µM	> 100 µM	> 100 µM	> 100 µM	> 100 µM	> 100 µM	> 100 µM	> 100 µM
CC(NC(=O)c1ccccc1)NC(=O)C(C)C(=O)Nc1ccccc1 (configuration not stated)	> 100 µM	> 100 µM	–	> 100 µM	> 100 µM	–	> 100 µM	> 100 µM	> 100 µM	> 100 µM	> 100 µM	> 100 µM	> 100 µM	–
C=CCSC1=N/C(=C\c2cccs2)C(=O)N1CC=C	> 100 µM	> 100 µM	> 100 µM	> 100 µM	> 100 µM	> 100 µM	> 100 µM	> 100 µM	–	> 100 µM	> 100 µM	> 100 µM	> 100 µM	> 100 µM
CN(C)CCN=C1Nc2ccccc2C(=S)N2CSCC12 (configuration not stated)	> 100 µM	> 100 µM	> 100 µM	> 100 µM	> 100 µM	> 100 µM	> 100 µM	> 100 µM	–	> 100 µM	> 100 µM	> 100 µM	> 100 µM	> 100 µM
CC1=C/C(=N\O)C(C(O)(C(F)(F)F)C(F)(F)F)C(C)(C)C1 (configuration not stated)	> 10 µM	> 10 µM	> 10 µM	> 10 µM	> 10 µM	> 10 µM	> 10 µM	> 10 µM	–	> 10 µM	> 10 µM	> 10 µM	> 10 µM	> 10 µM
CC(SC(=S)N1CCOCC1)C(=O)Nc1nnc(-c2ccccc2)o1 (configuration not stated)	> 100 µM	> 100 µM	> 100 µM	> 100 µM	> 100 µM	> 100 µM	> 100 µM	> 100 µM	20.5 µM	> 100 µM	> 100 µM	> 100 µM	> 100 µM	–
CC(=O)Nc1ccc2[nH]c(-c3cccc(Cl)c3)cc(=O)c2c1	> 100 µM	–	–	> 100 µM	–	> 100 µM	> 100 µM	> 100 µM	> 100 µM	23.8 µM	> 100 µM	> 100 µM	> 100 µM	63.5 µM
C=C[C@@H]1C[C@]2(C(=O)OC)Cc3nc4ccccc4nc3CC(C(=O)OC)=C2O1	> 100 µM	> 100 µM	> 100 µM	> 100 µM	–	> 100 µM	> 100 µM	> 100 µM	> 100 µM	> 100 µM	> 100 µM	> 100 µM	> 100 µM	–
CCOC(=O)CSc1nnc2cc(CN3CCCC3)c(-c3ccc(Cl)cc3)nn12	> 100 µM	> 100 µM	> 100 µM	> 100 µM	> 100 µM	> 100 µM	> 100 µM	> 100 µM	> 100 µM	> 100 µM	> 100 µM	> 100 µM	> 100 µM	–
